Tested on: regulated mbIL15 TILs
Test: ACZ dose response of IL15 expression and signaling, phospho-flow cytometry
Assay type: cell-based, human
Details: 18 hours, 0.1-100 μM ACZ
Description: Pre-REP TILs were prepared similarly to the methods of Example 1-3 and 9, and unengineered and mbIL15 TIL generated accordingly as described in Examples 1-3 and 9. Engagement of the IL15 signaling pathway results in phosphorylation of signal transducers downstream, including the transcription factor protein STAT5 and ribosomal protein S6. […] Next, the regulated mbIL15 TILs were regulated for 18 hours in the presence of a range of concentrations of ACZ including 0.1, 1, 2.5, 5, 10, 25, 100 μM, as well as vehicle control. The regulated mbIL15 TILs were then collected for staining and FACS analysis.
Briefly, cells were stained using antibodies for CD3, CD4, CD8, IL15 and a Live/Dead marker. Then cells were fixed in 2% formaldehyde (BD Cytofix) and permeabilized using a methanol-based buffer (BD Phospho Perm III Buffer) before staining with antibodies specific for phosphorylated STAT5 (Biolegend) and S6 (Cell Signaling Technology). Cells were acquired on the BD Symphony and analyzed using FlowJo software.

CC(=O)Nc1nnc(S(N)(=O)=O)s1 [ACZ, acetazolamide]
staining intensity of pSTAT5 and pS6: increased with higher concentrations of ACZ
ACZ concentration at which mbIL15 expression plateaus (four donors): 10 to 25 µM
